Experimental data from ChEMBL document CHEMBL4507273 (2021).

Legend:
[1] = target: Dual specificity mitogen-activated protein kinase kinase 4 (Homo sapiens) (UniProt P45985); conditions: Compound concentration 1000.0 nM
[2] = target: Serine/threonine-protein kinase 32B (Homo sapiens) (UniProt Q9NY57); conditions: Compound concentration 1000.0 nM
[3] = system: Epidermal growth factor receptor (Homo sapiens), P00533 [L858R,T790M]; conditions: Compound concentration 1000.0 nM
[4] = system: Epidermal growth factor receptor (Homo sapiens), P00533 [UNDEFINED MUTATION]; conditions: Compound concentration 1000.0 nM
[5] = target: Mitogen-activated protein kinase 4 (Homo sapiens) (UniProt P31152); conditions: Compound concentration 1000.0 nM
[6] = target: Ribosomal protein S6 kinase alpha-3 (Homo sapiens) (UniProt P51812); conditions: Compound concentration 1000.0 nM
[7] = target: Phosphatidylinositol 3-kinase C2 domain-containing subunit gamma (Homo sapiens) (UniProt O75747); conditions: Compound concentration 1000.0 nM
[8] = target: Death-associated protein kinase 3 (Homo sapiens) (UniProt O43293); conditions: Compound concentration 1000.0 nM
[9] = target: MAP/microtubule affinity-regulating kinase 3 (Homo sapiens) (UniProt P27448); conditions: Compound concentration 1000.0 nM
[10] = target: Phosphatidylinositol 4,5-bisphosphate 3-kinase catalytic subunit beta isoform (Homo sapiens) (UniProt P42338); conditions: Compound concentration 1000.0 nM
[11] = target: Ribosomal protein S6 kinase alpha-6 (Homo sapiens) (UniProt Q9UK32); conditions: Compound concentration 1000.0 nM
[12] = target: Serine/threonine-protein kinase 35 (Homo sapiens) (UniProt Q8TDR2); conditions: Compound concentration 1000.0 nM
[13] = target: Histamine H3 receptor (Homo sapiens) (UniProt Q9Y5N1); conditions: Compound concentration 10.0 uM
[14] = system: Phosphatidylinositol 4,5-bisphosphate 3-kinase catalytic subunit alpha isoform (Homo sapiens), P42336 [Q546K]; conditions: Compound concentration 1000.0 nM
[15] = target: Serine/threonine-protein kinase 25 (Homo sapiens) (UniProt O00506); conditions: Compound concentration 1000.0 nM
[16] = target: 5-hydroxytryptamine receptor 7 (Homo sapiens, UniProt P34969); test: GPCRScan assay: inhibition of 5-HT7A; set-up: radioligand conc. used [nm] 5.0 – 6.0, parental cells Stable HEK
[17] = target: Phosphatidylinositol 5-phosphate 4-kinase type-2 gamma (Homo sapiens) (UniProt Q8TBX8); conditions: Compound concentration 1000.0 nM
[18] = target: Serine/threonine-protein kinase MAK (Homo sapiens) (UniProt P20794); conditions: Compound concentration 1000.0 nM
[19] = target: Mitogen-activated protein kinase 3 (Homo sapiens) (UniProt P27361); conditions: Compound concentration 1000.0 nM
[20] = system: Phosphatidylinositol 4,5-bisphosphate 3-kinase catalytic subunit alpha isoform (Homo sapiens), P42336 [H1047L]; conditions: Compound concentration 1000.0 nM
[21] = target: Serine/threonine-protein kinase DCLK1 (Homo sapiens) (UniProt O15075); conditions: Compound concentration 1000.0 nM
[22] = target: Tyrosine-protein kinase JAK3 (Homo sapiens) (UniProt P52333); conditions: Compound concentration 1000.0 nM
[23] = target: Dual specificity protein kinase CLK2 (Homo sapiens) (UniProt P49760); conditions: Compound concentration 1000.0 nM
[24] = target: Proto-oncogene tyrosine-protein kinase receptor Ret (Homo sapiens) (UniProt P07949); conditions: Compound concentration 1000.0 nM
[25] = target: Tyrosine-protein kinase Fyn (Homo sapiens) (UniProt P06241); conditions: Compound concentration 1000.0 nM
[26] = target: Ephrin type-B receptor 6 (Homo sapiens) (UniProt O15197); conditions: Compound concentration 1000.0 nM
[27] = target: Wee1-like protein kinase 2 (Homo sapiens) (UniProt P0C1S8); conditions: Compound concentration 1000.0 nM
[28] = target: Serine/threonine-protein kinase WNK3 (Homo sapiens) (UniProt Q9BYP7); conditions: Compound concentration 1000.0 nM
[29] = system: Mast/stem cell growth factor receptor Kit (Homo sapiens), P10721 [A829P]; conditions: Compound concentration 1000.0 nM
[30] = target: Phosphatidylinositol 5-phosphate 4-kinase type-2 beta (Homo sapiens) (UniProt P78356); conditions: Compound concentration 1000.0 nM
[31] = target: Fibroblast growth factor receptor 1 (Homo sapiens) (UniProt P11362); conditions: Compound concentration 1000.0 nM
[32] = target: T1, Alpha-2B adrenergic receptor (Homo sapiens) (UniProt P18089); conditions: Compound concentration 10.0 uM
T1 sequence (whole entry): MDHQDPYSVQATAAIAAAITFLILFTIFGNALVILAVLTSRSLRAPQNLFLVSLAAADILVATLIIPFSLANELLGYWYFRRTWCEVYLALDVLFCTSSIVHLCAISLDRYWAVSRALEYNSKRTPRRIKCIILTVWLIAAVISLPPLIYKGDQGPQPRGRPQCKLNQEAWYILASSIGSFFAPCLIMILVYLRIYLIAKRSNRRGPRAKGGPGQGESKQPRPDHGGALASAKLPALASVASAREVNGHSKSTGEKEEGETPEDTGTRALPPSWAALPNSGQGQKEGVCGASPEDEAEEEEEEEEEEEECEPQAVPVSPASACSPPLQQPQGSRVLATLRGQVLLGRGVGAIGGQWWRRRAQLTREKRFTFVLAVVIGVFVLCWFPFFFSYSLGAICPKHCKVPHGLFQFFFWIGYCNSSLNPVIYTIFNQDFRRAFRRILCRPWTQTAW

[33] = target: Testis-specific serine/threonine-protein kinase 3 (Homo sapiens) (UniProt Q96PN8); conditions: Compound concentration 1000.0 nM
[34] = target: Serine/threonine-protein kinase 10 (Homo sapiens) (UniProt O94804); conditions: Compound concentration 1000.0 nM

Sequence of 5-hydroxytryptamine receptor 7 (P34969 whole entry): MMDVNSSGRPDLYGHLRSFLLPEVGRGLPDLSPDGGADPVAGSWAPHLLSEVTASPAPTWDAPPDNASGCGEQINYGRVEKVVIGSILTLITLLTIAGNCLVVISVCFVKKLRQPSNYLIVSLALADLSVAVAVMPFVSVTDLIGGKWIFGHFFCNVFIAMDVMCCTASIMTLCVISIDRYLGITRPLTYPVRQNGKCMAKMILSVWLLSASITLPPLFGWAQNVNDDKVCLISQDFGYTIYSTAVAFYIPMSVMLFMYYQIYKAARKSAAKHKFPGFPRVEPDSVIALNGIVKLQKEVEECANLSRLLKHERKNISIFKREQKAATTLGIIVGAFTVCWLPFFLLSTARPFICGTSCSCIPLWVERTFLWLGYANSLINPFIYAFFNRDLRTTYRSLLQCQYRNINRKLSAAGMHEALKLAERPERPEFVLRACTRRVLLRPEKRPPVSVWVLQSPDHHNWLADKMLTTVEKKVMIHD
Sequence of Serine/threonine-protein kinase 32B (Homo sapiens) (Q9NY57 whole entry): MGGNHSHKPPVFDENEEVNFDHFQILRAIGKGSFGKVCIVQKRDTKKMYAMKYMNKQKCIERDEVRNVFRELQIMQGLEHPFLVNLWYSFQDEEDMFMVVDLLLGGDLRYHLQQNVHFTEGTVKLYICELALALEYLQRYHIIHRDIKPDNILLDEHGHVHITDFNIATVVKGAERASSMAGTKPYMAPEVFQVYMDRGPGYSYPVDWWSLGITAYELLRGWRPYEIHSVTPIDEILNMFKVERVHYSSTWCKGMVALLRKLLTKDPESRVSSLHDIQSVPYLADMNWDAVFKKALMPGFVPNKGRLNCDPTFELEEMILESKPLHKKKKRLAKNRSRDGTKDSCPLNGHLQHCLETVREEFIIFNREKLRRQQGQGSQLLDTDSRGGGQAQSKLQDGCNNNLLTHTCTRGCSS
Sequence of Serine/threonine-protein kinase DCLK1 (Homo sapiens) (O15075 whole entry): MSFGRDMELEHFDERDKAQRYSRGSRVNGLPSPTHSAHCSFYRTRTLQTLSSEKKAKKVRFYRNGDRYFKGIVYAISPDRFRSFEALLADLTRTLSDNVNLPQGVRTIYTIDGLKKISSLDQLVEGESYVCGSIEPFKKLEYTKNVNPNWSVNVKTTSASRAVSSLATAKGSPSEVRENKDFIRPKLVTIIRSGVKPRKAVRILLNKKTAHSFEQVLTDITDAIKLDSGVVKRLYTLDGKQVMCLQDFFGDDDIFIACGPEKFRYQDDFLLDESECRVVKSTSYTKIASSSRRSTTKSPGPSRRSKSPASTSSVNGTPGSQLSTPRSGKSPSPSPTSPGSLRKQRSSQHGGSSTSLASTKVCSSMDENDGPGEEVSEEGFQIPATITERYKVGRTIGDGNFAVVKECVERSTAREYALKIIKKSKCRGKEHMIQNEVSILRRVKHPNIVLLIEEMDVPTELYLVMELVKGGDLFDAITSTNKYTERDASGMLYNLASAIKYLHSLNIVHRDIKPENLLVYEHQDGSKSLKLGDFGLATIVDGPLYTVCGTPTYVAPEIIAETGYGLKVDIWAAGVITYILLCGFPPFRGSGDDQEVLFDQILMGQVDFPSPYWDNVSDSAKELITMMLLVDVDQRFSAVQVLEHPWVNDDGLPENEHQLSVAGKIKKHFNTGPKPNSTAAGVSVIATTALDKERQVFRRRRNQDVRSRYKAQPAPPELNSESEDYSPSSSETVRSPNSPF
Sequence of Serine/threonine-protein kinase 35 (Homo sapiens) (Q8TDR2 whole entry): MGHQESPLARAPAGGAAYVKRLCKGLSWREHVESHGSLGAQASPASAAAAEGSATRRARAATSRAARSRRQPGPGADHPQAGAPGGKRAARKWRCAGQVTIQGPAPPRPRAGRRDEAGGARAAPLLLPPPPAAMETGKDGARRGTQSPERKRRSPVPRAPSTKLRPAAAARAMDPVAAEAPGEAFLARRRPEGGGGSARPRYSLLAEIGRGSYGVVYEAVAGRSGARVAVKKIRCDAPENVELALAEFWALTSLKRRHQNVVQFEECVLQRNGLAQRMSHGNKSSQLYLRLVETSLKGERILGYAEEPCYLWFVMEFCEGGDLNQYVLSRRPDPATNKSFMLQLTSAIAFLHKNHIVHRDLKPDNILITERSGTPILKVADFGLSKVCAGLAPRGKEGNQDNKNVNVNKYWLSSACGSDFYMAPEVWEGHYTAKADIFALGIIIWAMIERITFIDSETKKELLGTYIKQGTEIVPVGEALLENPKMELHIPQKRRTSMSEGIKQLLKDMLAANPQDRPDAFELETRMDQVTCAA
Sequence of Phosphatidylinositol 5-phosphate 4-kinase type-2 gamma (Homo sapiens) (Q8TBX8 whole entry): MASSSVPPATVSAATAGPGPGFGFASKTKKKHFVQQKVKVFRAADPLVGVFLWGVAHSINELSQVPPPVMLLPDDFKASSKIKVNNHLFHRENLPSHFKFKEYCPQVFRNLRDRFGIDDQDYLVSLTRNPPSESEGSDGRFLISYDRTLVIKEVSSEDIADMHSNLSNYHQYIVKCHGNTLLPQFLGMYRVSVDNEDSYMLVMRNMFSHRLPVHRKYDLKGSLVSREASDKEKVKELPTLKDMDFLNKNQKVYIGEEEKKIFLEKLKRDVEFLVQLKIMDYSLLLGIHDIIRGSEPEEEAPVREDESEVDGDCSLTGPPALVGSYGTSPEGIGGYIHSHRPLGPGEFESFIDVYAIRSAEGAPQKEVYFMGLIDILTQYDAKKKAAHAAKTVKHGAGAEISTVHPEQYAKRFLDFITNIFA
Sequence of Fibroblast growth factor receptor 1 (Homo sapiens) (P11362 22-822 limits assumed): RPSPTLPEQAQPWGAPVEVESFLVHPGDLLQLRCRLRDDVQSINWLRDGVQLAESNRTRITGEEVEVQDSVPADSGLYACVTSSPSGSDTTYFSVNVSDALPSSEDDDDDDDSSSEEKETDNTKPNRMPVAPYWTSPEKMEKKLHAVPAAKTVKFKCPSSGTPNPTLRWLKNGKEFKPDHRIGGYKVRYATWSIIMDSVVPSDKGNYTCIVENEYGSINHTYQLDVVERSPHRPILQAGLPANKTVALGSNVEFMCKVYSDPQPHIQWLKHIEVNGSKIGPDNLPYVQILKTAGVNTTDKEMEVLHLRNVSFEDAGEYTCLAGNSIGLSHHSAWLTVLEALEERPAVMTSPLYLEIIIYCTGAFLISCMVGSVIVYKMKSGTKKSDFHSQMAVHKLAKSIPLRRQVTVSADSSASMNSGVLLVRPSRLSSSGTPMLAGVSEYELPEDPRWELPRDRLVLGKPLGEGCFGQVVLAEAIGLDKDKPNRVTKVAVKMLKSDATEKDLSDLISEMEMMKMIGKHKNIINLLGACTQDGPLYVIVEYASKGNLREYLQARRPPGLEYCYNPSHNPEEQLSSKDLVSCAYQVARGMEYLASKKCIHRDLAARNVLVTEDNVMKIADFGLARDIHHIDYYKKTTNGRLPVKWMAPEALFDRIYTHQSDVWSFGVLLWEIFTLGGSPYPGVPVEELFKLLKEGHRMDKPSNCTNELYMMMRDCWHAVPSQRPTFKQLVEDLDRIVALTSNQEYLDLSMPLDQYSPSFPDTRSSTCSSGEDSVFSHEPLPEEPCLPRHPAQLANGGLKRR
Sequence of Mitogen-activated protein kinase 3 (Homo sapiens) (P27361 whole entry, canonical isoform): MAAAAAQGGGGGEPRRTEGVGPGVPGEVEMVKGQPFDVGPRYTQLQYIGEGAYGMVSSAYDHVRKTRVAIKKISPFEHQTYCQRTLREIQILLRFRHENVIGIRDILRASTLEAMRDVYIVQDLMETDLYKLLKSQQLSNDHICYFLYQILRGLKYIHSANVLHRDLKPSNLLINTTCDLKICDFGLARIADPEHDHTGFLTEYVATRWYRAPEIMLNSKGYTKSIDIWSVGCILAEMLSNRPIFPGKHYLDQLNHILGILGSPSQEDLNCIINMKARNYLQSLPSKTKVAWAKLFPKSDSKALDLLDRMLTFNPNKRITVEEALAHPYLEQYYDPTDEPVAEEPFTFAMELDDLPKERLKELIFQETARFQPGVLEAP
Sequence of Mast/stem cell growth factor receptor Kit (Homo sapiens), P10721 [A829P] (P10721 whole entry A829P): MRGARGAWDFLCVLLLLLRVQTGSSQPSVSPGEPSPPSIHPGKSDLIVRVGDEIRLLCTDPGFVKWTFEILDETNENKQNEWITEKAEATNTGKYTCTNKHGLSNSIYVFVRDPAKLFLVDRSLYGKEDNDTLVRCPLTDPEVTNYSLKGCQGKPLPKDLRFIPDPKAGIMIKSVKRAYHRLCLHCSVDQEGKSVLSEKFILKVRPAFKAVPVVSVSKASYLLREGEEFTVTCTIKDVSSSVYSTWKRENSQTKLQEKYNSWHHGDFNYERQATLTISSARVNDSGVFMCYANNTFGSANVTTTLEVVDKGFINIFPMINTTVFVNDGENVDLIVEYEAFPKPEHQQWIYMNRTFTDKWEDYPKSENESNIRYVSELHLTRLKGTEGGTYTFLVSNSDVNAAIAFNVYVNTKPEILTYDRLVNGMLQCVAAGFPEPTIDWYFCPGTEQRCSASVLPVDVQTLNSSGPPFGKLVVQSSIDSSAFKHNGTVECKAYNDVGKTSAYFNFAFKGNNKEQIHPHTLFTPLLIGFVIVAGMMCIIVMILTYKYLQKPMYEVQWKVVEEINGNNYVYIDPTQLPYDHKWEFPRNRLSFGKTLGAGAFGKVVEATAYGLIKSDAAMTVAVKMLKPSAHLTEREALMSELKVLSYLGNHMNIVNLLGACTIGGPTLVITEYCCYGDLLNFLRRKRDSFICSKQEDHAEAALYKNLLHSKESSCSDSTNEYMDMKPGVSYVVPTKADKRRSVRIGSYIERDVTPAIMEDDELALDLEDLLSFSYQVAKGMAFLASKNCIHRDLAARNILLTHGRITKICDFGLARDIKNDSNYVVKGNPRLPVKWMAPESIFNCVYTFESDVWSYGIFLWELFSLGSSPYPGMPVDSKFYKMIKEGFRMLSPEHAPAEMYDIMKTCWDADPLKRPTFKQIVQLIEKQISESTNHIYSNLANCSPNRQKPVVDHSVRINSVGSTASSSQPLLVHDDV
Sequence of Testis-specific serine/threonine-protein kinase 3 (Homo sapiens) (Q96PN8 whole entry): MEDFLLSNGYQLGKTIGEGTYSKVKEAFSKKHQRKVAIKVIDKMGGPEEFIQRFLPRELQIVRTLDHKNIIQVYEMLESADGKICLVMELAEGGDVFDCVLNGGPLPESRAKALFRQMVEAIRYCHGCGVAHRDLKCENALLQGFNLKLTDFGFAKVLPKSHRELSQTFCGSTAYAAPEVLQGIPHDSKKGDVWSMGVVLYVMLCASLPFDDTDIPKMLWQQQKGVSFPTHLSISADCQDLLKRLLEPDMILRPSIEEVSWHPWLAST

Row | SMILES | residual activity [1] [%] | residual activity [2] [%] | residual activity [3] [%] | residual activity [4] [%] | residual activity [5] [%] | residual activity [6] [%] | residual activity [7] [%] | residual activity [8] [%] | residual activity [9] [%] | residual activity [10] [%] | residual activity [11] [%] | residual activity [12] [%] | inhibition [13] [%] | residual activity [14] [%] | residual activity [15] [%] | Ki ([16]; read-out: Ki) [nM] | residual activity [17] [%] | residual activity [18] [%] | residual activity [19] [%] | residual activity [20] [%] | other results
1 | CNCc1ccccc1-c1csc([C@@H](C)Nc2nc(C)nc3cc(OC)c(OC)cc23)c1 [BAY-293] | 86 | 100 | 93 | 82 | 94 | 80 | 59 | 100 | 89 | 96 | 85 | 91 | 26.7 | 89 | 89 | 1730 | 92 | 100 | 94 | 95 | Ki ([16]; read-out: pKi (converted)): 1700 nM; residual activity [21]: 86%; residual activity [22]: 94%; residual activity [23]: 98%; residual activity [24]: 86%; residual activity [25]: 100%; residual activity [26]: 98%; residual activity [27]: 100%; residual activity [28]: 100%; residual activity [29]: 87%; residual activity [30]: 100%; residual activity [31]: 100%; inhibition [32]: 64.2%; residual activity [33]: 100%; residual activity [34]: 95%
2 | CNCc1ccccc1-c1csc([C@H](C)Nc2nc(C)nc3cc(OC)c(OC)cc23)c1 [BAY-294] | 100 | 100 | 87 | 98 | 95 | 100 | 100 | 100 | 100 | 89 | 100 | 100 | 24.6 | 84 | 100 | 700 | 100 | 97 | 100 | 88 | residual activity [21]: 87%; residual activity [22]: 99%; residual activity [23]: 100%; residual activity [24]: 100%; residual activity [25]: 100%; residual activity [26]: 87%; residual activity [27]: 100%; residual activity [28]: 98%; residual activity [29]: 100%; residual activity [30]: 100%; residual activity [31]: 100%; inhibition [32]: 82.9%; residual activity [33]: 100%; residual activity [34]: 100%
